According to article PMC7034394 (Journal of medicinal chemistry, 2019):
“Also recorded” adds a separate entry of the source. Values belong to the compound of their own block, whether it stands above or below them.

What was measured:
[1] = target: T1, slc26a3 (DRA) (Mus musculus, UniProt Q9WVC8); type: cell-based, murine; settings: for slc26a3 inhibition at 5 μM: 5 μM compound
T1 sequence (Q9WVC8 1-757): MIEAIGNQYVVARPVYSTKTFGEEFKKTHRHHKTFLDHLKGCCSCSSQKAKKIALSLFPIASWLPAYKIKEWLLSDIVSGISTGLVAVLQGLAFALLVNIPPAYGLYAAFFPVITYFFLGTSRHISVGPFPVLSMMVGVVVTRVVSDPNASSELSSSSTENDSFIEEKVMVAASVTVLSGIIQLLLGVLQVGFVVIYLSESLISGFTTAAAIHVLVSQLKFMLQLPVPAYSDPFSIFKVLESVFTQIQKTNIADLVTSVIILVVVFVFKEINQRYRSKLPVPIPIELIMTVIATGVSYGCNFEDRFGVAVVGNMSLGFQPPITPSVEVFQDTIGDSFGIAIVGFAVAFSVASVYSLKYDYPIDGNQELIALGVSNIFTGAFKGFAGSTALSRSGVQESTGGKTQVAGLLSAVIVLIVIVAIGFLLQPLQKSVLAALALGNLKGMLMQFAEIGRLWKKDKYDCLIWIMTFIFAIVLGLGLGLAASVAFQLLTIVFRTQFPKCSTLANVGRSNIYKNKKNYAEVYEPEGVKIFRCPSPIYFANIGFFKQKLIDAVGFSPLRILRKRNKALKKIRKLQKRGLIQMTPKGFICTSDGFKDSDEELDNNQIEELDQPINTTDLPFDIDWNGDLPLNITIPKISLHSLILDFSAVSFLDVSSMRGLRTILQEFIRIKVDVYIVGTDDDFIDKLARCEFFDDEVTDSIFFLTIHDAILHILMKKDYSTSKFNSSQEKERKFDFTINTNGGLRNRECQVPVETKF

[2] = target: T2, slc26a4 (pendrin) (Mus musculus, UniProt Q9R155); type: cell-based, murine; settings: 10 μM compound, 10 min preincubation
T2 sequence (Q9R155 1-780): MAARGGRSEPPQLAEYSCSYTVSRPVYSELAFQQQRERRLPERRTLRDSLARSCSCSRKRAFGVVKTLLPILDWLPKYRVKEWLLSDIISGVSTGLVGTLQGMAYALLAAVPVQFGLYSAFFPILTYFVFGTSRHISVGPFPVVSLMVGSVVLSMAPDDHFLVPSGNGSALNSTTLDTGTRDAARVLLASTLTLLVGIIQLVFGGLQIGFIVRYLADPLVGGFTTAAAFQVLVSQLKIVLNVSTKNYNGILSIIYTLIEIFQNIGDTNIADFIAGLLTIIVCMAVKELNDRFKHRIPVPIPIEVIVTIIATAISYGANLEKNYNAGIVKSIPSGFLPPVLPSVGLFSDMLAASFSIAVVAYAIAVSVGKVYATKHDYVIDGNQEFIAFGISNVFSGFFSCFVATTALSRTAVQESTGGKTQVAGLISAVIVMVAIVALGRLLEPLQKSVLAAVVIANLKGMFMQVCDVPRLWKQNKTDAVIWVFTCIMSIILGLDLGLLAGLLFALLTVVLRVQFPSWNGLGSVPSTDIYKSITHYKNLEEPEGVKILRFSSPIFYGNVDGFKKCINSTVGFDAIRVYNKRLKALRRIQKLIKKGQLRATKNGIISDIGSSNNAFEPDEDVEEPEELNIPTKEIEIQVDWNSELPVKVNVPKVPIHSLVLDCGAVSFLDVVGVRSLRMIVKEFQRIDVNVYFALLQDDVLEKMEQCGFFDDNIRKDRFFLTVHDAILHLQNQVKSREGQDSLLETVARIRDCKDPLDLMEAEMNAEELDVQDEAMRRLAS

[3] = target: T3, slc26a6 (PAT-1) (Mus musculus, UniProt Q8CIW6); type: cell-based, murine; settings: 10 μM compound, 10 min preincubation
T3 sequence (Q8CIW6 1-758): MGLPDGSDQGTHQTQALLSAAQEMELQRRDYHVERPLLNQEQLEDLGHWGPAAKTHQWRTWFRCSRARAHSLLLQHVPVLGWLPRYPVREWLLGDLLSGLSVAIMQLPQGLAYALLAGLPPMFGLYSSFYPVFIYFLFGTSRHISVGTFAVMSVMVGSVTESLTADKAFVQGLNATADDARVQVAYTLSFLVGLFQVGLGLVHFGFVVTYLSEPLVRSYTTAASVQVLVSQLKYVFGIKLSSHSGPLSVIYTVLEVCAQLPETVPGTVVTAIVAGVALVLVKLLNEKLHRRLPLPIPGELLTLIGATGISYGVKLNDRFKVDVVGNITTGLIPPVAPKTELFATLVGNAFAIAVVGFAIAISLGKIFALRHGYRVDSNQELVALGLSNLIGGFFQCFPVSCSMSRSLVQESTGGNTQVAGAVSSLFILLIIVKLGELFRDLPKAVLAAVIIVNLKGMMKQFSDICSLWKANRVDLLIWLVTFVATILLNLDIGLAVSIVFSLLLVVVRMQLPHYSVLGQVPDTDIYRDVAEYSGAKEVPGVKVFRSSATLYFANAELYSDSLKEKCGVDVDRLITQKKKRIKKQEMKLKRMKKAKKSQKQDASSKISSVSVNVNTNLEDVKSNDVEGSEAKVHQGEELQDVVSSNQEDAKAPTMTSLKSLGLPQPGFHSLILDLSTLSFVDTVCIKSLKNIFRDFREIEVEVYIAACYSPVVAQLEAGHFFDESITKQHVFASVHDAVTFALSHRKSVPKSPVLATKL

[4] = target: T4, SLC26A9 (Homo sapiens, UniProt Q7LBE3); type: cell-based; settings: 10 μM compound, 10 min preincubation
T4 sequence (Q7LBE3 1-791): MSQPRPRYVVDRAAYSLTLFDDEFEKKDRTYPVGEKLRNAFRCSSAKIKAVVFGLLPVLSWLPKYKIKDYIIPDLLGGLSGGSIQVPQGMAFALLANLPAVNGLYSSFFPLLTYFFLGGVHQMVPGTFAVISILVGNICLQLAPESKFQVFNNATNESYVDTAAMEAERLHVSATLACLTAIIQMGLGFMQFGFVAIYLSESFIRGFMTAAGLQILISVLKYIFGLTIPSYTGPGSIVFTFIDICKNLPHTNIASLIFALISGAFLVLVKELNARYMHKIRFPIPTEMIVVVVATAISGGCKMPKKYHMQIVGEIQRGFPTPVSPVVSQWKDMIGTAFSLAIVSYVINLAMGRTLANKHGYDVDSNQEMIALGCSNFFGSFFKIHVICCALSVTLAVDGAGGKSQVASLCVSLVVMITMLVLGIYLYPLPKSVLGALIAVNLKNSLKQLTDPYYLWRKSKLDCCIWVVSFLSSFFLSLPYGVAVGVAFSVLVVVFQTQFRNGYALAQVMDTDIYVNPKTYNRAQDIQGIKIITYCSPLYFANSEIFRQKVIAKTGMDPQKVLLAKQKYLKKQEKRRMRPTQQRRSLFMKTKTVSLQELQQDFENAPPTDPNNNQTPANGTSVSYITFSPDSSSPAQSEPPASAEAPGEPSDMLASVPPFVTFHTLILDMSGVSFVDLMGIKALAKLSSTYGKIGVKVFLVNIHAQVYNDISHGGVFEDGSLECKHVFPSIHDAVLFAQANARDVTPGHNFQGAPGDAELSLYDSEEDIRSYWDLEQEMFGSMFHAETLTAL

[5] = Pharmacokinetics in mice, serum concentration by LC/MS; type: in vivo; settings: for bioavailability: mouse, serum, po
[6] = tested on: loperamide-treated mice; test: Loperamide-induced constipation model in mice; type: in vivo; settings: for Stool water content: 3 h stool
[7] = tested on: loperamide-treated mice; settings: cited from earlier work

- Extent of inhibition of slc26a3-mediated anion exchange [1]: fully inhibited
- Inhibition of chloride/iodide exchange, slc26a4 (pendrin) [2]: not significantly inhibited
- Inhibition of chloride/iodide exchange, slc26a6 (PAT-1) [3]: not significantly inhibited
- Inhibition of chloride/iodide exchange, SLC26A9 [4]: not significantly inhibited
- Serum level at 16 h ([5]; mice, single dose 5 mg/kg oral or intraperitoneal, 16 h): little compound remaining
- bioavailability ([5]; 5 mg/kg): 16 ± 7%
SMILES: Cc1c(CC(=O)O)c(=O)oc2c(C)c(OCc3cccc(C(F)(F)F)c3)ccc12 [4be]
- 3 h stool weight, pellet number, and water content ([6]; loperamide-treated mice, 5 mg/kg oral 1 h before loperamide, 5 mg/kg): partially prevented constipation; also recorded: improved

- slc26a3 inhibition activity, in words [1]: much reduced inhibition
SMILES: Cc1c(CC(N)=O)c(=O)oc2c(C)c(OCc3cccc(Br)c3)ccc12 [8ae]

- slc26a3 inhibition at 5 μM [1]: no inhibition
SMILES: CCCOc1ccc2c(C)c(CC(=O)O)c(=O)oc2c1C [4ad]

- slc26a3 inhibition activity, in words [1]: inactive
SMILES: Cc1c(OCc2cccc(Br)c2)ccc2cc(C(=O)O)c(=O)oc12 [8aa]

- slc26a3 inhibition at 5 μM [1]: no inhibition
SMILES: Cc1c(CC(=O)O)c(=O)oc2c(C)c(OCCc3cccc(C(F)(F)F)c3)ccc12 [4as]

- slc26a3 inhibition at 5 μM [1]: no inhibition
SMILES: C=CCOc1ccc2c(C)c(CC(=O)O)c(=O)oc2c1C [4aa]

- slc26a3 inhibition activity, in words [1]: inactive
SMILES: COc1ccc2ccc(=O)oc2c1 [S3]

- slc26a3 inhibition at 5 μM [1]: no inhibition
SMILES: Cc1c(CC(=O)O)c(=O)oc2c(C)c(OS(=O)(=O)c3cccc(Cl)c3)ccc12 [4ar]

- bioavailability ([5]; 5 mg/kg): 54 ± 6.5%
SMILES: Cc1c(CC(=O)O)c(=O)oc2c(C)c(OCc3cccc(Br)c3)ccc12 [4ba, 2-(7-((3-Bromobenzyl)oxy)-4,8-dimethyl-2-oxo-2H-chromen-3-yl)acetic Acid]
- Efficacy in a mouse model of constipation [7]: showed efficacy

- Extent of inhibition of slc26a3-mediated anion exchange [1]: fully inhibited
- Inhibition of chloride/iodide exchange, slc26a4 (pendrin) [2]: not significantly inhibited
- Inhibition of chloride/iodide exchange, slc26a6 (PAT-1) [3]: not significantly inhibited
- Inhibition of chloride/iodide exchange, SLC26A9 [4]: not significantly inhibited
- Duration of predicted therapeutic concentrations in serum ([5]; mice, single 10 mg/kg dose, oral (b1), oral or intraperitoneal): > 72 h
- bioavailability ([5]; 10 mg/kg): 39 ± 4%
SMILES: Cc1c(CC(=O)O)c(=O)oc2c(C)c(OCc3cccc(I)c3)ccc12 [4az]
- Effect on stool parameters compared to vehicle ([6]; control mice not treated with loperamide): no significant effect
- Stool water content ([6]; loperamide-treated mice, 3 mg/kg oral): fully normalized
- Stool water content ([6]; loperamide-treated mice, 10 mg/kg oral): fully normalized

- slc26a3 inhibition at 5 μM [1]: no inhibition
SMILES: Cc1cccc(S(=O)(=O)Oc2ccc3c(C)c(CC(=O)O)c(=O)oc3c2C)c1 [4aq]

- slc26a3 inhibition at 5 μM [1]: inactive
SMILES: Cc1c(CC(=O)O)c(=O)oc2c(C)c(OCCn3cccc3)ccc12 [4ap]
